Results reported in ChEMBL document CHEMBL1201862, “PubChem BioAssay data set” (2004).
Active and inactive are the calls of the source.

Tests used:
[1] = target: T1, Replicative DNA helicase DnaB (Mycobacterium tuberculosis, UniProt P9WMR3); test: DnaB intein splicing inhibitors, dose response, biochemical, cell-free fluorescence (AID 449749); assay type: functional
T1 sequence (P9WMR3 whole entry): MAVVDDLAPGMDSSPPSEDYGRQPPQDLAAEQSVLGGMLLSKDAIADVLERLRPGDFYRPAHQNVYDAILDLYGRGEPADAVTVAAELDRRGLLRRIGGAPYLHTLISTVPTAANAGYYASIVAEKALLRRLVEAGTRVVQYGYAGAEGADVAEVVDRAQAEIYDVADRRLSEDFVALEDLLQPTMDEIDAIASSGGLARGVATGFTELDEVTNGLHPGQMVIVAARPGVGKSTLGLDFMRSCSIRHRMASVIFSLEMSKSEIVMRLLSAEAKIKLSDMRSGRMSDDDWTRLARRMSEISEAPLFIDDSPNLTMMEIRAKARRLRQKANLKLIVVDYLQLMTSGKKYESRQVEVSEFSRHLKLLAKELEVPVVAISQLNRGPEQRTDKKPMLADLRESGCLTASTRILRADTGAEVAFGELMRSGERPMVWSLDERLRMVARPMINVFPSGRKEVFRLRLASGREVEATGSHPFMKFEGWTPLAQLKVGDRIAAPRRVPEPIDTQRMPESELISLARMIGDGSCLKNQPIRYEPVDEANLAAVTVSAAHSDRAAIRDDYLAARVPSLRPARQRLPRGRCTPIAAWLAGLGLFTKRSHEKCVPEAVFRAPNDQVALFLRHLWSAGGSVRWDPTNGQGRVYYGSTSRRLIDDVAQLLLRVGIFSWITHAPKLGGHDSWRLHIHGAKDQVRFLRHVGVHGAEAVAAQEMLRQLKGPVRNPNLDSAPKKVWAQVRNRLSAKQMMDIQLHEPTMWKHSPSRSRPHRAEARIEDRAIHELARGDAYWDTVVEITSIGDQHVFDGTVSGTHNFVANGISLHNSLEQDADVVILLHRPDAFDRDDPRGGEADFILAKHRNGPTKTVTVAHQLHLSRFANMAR

[2] = target: T2, Small ubiquitin-related modifier 1 (Homo sapiens, UniProt P63165); test: SUMO1 protein interaction blockers, potency – biochemical, fluorescence polarization, uHTS hits, dose response (AID 624382); assay type: functional; details: read-out: IC50_Mean
T2 sequence (P63165 whole entry): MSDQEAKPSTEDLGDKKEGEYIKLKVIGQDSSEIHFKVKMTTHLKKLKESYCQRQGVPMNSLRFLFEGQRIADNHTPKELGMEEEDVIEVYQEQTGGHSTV

Caspase-6 = target: T3, Caspase-6 (Homo sapiens, UniProt P55212); test: inhibition of CASP6 peptide cleavage – biochemical, VEID-R110 fluorescence, cherry-pick, dose response (AID 720632)
T3 sequence (P55212 whole entry): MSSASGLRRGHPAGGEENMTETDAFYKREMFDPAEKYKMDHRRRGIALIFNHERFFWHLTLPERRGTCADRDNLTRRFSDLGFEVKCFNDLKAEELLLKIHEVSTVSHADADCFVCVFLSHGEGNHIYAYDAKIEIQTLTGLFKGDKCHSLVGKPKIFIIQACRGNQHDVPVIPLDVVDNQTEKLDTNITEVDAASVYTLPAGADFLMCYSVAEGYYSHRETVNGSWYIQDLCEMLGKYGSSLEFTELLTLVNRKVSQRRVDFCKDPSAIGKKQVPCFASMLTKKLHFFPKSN

[3] = target: T4, Carboxy-terminal domain RNA polymerase II polypeptide A small phosphatase 1 (Homo sapiens, UniProt Q9GZU7); test: CTDSP1 inhibitors, concentration-response, biochemical, absorbance readout, ultra-high-throughput screen actives (AID 540297); assay type: functional
T4 sequence (Q9GZU7 whole entry): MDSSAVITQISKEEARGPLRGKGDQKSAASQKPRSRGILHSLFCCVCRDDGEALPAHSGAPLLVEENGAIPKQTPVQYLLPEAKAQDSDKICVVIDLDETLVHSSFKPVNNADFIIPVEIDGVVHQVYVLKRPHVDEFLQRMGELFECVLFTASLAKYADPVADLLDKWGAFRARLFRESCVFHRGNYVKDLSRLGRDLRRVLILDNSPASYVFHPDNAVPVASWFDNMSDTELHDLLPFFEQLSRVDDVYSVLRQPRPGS

[4] = target: T2, Small ubiquitin-related modifier 1; test: SUMO1 protein-protein binding blockers, potency – biochemical, FRET, dose response (AID 624383); assay type: functional; details: read-out: IC50_Mean
Protein RecA = target: T5, Protein RecA (Mycobacterium tuberculosis, UniProt P9WHJ3); test: Fluorescence Cell-Free Homogeneous Dose Retest to Identify Inhibitors of RecA-Intein Splicing Activity. [Related pubchem assays (depositor defined):AID2097, AID2223, AID489010, AID492950]; assay type: functional
T5 sequence (P9WHJ3 whole entry): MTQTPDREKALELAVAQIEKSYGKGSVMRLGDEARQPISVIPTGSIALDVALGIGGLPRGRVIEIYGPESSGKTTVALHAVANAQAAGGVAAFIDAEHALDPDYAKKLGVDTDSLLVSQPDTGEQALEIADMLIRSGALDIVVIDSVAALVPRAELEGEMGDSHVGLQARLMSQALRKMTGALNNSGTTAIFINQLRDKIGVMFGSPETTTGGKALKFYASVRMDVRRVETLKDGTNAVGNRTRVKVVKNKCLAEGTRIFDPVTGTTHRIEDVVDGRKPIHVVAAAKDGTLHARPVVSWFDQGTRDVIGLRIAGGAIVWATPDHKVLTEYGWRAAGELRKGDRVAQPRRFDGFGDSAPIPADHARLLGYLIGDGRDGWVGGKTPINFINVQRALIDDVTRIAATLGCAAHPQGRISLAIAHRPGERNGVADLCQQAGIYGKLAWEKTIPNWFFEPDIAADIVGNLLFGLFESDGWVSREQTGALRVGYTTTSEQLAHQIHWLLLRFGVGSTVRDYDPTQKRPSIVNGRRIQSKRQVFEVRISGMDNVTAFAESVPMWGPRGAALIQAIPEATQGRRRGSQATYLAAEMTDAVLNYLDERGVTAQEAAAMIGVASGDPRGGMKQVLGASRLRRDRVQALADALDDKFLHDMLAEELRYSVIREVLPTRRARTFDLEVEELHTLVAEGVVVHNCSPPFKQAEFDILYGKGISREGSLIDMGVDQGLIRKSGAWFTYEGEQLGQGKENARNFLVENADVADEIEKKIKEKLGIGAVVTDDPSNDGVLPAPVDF

[5] = alpha-synuclein stem-loop luciferase translation blockers – H4 neuroglioma cells, luminescence, confirmation (AID 1988); assay type: functional, cell-based
[6] = Luminescence Cell-Based Dose Response HTS to Identify Inhibitors of 5'UTR Stem-Loop Driven Prion Protein mRNA Translation in H4 Neuroglioblastoma Cells. [Related pubchem assays: 1827 (Project Summary), 1813 (Primary HTS)]; assay type: functional
[7] = luciferase reporter signal suppression in cells – H4 neuroglioma cells, luminescence, dose response (AID 1990); assay type: functional, cell-based
[8] = general mammalian cell viability loss – activator set, cherry-pick, cytotoxicity control for miR-122 modulator project, dose response (AID 720690); assay type: functional, cell-based;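 further: HEK293T human cells scored for general mammalian cytotoxicity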
[9] = target: T6, Sentrin-specific protease 8 (Homo sapiens, UniProt Q96LD8); assay type: functional
T6 sequence (Q96LD8 whole entry): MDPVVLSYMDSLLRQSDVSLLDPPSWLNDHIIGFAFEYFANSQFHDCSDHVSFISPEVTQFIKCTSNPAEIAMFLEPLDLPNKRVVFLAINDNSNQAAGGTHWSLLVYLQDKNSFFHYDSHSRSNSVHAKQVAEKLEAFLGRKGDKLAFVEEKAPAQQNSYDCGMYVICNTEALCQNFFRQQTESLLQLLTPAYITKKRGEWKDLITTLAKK

[10] = target: T6, Sentrin-specific protease 8; assay type: functional; remark: listed apart in the source
Beta-galactosidase = Beta-galactosidase (Escherichia coli, UniProt Q8VNN2); test: Dose response counterscreen for EBI2 assay utilizing the enzyme, b-galactosidase.; assay type: functional
Chain of Beta-galactosidase (Q8VNN2 whole entry): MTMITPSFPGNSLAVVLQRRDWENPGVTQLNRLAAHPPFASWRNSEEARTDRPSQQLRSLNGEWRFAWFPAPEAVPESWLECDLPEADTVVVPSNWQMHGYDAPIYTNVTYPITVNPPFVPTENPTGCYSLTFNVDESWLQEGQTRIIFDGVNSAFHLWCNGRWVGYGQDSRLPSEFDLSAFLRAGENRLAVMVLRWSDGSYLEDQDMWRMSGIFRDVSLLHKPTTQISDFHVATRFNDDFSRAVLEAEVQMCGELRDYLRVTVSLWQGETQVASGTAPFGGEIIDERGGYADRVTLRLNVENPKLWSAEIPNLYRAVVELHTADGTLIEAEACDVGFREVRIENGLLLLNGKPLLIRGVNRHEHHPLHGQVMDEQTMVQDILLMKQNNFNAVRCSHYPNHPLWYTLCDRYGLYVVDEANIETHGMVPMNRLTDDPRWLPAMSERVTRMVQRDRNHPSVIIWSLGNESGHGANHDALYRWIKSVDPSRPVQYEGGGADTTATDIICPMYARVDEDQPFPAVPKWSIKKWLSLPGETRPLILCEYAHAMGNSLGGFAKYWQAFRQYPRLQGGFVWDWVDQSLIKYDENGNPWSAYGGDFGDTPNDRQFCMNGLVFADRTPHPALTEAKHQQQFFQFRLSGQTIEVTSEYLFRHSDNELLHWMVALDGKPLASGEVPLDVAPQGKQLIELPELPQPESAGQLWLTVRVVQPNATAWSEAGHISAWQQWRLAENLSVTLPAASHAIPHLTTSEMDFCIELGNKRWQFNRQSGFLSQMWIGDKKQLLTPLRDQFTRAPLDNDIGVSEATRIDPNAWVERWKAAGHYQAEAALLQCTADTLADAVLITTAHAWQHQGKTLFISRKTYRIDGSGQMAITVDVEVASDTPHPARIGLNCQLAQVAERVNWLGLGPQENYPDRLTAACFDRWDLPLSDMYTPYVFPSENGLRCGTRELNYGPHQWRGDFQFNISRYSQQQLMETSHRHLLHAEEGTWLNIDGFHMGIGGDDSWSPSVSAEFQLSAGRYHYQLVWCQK

[11] = target: T7, Corticotropin-releasing factor receptor 2/Corticotropin-releasing factor-binding protein (Homo sapiens, UniProt P24387+Q13324); test: activators of CRF receptor 2 with binding protein – uHTS hits, confirmation (AID 602473); assay type: functional; details: read-out: EC50_Mean
T7 sequence (Q13324 whole entry): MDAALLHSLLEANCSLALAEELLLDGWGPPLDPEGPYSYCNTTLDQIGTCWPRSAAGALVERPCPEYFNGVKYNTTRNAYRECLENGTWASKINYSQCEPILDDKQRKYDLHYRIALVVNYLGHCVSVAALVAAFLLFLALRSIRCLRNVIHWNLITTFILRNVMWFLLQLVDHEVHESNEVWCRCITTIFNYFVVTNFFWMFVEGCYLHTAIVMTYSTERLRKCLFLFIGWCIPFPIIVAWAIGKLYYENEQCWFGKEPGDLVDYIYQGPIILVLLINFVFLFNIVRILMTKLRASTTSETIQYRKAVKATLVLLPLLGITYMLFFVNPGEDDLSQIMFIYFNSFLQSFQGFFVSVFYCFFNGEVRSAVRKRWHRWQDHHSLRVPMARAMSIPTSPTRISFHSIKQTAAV
T7 sequence (P24387 whole entry): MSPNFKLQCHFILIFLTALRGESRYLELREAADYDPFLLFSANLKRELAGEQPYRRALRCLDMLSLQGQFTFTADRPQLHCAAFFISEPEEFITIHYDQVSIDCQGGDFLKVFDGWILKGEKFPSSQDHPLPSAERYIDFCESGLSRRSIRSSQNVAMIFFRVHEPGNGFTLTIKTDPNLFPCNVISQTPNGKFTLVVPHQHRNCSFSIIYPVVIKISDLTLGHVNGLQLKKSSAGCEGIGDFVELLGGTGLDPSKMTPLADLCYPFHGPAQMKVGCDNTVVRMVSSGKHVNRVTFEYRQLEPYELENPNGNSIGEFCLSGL

[12] = target: T7, Corticotropin-releasing factor receptor 2/Corticotropin-releasing factor-binding protein; test: Dose Response confirmation of uHTS hits for small molecule antagonists of the CRF-binding protein and CRF-R2 receptor complex.; assay type: functional; details: read-out: IC50_Mean
[13] = Counterscreen for activators of the function of SWI/SNF related, matrix associated, actin dependent regulator of chromatin, subfamily a, member 2 (SMARCA2, BRM): Luminescence-based cell-based high throughput dose response assay to identify non-selective compounds using the VP16 reporter assay.; assay type: functional
[14] = target: T8, Histone-lysine N-methyltransferase NSD2 (Homo sapiens, UniProt O96028); assay type: biochemical
T8 sequence (O96028 whole entry): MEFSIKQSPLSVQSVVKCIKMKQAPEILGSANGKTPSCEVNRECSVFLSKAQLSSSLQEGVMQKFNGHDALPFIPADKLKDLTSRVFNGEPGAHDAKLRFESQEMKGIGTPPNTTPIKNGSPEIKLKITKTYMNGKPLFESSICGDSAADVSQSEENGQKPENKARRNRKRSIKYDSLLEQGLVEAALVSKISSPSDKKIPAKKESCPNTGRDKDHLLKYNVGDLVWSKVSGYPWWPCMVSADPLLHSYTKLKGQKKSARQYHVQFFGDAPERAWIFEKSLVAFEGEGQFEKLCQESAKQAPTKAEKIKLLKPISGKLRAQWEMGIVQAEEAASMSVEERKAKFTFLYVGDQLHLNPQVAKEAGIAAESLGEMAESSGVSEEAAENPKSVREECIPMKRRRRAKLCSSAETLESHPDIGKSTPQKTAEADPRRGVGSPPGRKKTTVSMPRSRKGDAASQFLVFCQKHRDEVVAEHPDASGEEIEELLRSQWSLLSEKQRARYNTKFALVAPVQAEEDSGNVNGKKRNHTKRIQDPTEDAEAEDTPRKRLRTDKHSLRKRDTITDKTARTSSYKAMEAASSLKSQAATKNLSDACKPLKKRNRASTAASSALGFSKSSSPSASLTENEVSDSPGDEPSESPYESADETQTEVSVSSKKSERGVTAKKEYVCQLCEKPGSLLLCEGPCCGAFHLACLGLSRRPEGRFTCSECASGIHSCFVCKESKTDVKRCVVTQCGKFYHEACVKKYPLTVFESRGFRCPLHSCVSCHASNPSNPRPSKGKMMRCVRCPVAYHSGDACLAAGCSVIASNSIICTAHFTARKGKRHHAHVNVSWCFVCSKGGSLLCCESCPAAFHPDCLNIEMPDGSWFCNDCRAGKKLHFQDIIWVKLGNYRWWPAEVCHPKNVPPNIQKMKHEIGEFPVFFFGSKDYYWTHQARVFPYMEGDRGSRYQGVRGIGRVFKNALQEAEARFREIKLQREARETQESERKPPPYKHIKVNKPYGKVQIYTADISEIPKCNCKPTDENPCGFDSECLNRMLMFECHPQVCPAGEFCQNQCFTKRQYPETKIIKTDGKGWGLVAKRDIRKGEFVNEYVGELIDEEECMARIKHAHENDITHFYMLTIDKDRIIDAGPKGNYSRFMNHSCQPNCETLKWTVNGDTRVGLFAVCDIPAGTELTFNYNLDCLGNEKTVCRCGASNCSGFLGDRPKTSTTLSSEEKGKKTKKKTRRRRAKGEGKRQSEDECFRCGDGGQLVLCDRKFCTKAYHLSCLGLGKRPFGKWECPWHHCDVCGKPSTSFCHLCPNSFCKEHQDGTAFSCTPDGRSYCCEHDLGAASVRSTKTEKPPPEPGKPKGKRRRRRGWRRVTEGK

[15] = target: SWI/SNF-related matrix-associated actin-dependent regulator of chromatin subfamily A member 2 (Homo sapiens, UniProt P51531); test: Luminescence-based cell-based high throughput dose response assay to identify activators of the function of SWI/SNF related, matrix associated, actin dependent regulator of chromatin, subfamily a, member 2 (SMARCA2, BRM).; assay type: functional
Chain of SWI/SNF-related matrix-associated actin-dependent regulator of chromatin subfamily A member 2 (P51531 whole entry): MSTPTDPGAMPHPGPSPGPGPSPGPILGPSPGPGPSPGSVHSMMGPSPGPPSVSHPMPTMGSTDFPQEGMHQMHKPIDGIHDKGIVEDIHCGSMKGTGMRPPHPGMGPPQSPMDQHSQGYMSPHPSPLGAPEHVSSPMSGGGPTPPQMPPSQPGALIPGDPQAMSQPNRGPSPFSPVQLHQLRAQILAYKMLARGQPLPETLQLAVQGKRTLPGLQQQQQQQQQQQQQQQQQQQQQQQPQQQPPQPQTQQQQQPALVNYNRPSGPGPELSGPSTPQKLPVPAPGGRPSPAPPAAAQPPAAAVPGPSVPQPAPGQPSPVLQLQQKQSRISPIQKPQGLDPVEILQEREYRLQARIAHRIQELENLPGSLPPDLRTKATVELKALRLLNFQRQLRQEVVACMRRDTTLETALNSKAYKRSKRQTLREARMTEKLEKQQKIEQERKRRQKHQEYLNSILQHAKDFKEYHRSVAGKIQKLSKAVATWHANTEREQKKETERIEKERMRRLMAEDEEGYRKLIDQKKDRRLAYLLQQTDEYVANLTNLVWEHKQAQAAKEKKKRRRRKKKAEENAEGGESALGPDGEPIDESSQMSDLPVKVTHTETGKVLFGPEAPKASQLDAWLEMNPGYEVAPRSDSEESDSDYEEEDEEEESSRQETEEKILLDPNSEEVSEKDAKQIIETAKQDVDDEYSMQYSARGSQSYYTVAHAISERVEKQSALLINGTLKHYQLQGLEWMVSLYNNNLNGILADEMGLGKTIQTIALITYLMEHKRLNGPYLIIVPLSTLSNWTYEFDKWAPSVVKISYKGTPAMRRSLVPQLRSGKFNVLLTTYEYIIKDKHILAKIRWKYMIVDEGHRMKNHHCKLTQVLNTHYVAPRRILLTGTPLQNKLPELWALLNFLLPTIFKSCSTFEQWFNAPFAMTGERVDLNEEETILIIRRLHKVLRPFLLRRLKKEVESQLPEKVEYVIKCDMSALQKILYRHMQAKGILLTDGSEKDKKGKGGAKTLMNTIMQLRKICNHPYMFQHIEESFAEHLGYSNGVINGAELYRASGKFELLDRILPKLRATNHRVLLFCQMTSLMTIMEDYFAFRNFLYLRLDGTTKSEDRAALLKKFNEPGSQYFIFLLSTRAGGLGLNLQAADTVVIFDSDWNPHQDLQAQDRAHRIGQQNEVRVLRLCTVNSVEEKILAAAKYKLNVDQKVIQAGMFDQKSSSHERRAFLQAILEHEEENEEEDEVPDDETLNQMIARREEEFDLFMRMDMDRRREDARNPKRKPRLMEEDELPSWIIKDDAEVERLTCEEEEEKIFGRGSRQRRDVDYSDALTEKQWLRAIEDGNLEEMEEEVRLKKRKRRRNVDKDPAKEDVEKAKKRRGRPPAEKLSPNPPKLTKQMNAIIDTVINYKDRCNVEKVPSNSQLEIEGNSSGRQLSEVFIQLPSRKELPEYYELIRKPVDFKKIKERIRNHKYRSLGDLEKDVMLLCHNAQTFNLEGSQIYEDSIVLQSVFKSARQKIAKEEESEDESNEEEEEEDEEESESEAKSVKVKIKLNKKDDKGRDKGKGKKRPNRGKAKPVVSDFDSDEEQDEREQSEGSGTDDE

With CC1=NN(c2ccc(Cl)c(C(=O)O)c2)C(=O)C1 the AC50 [1] was 1.88 µM (active), the IC50 [2] was > 66.6 µM (inactive) and the AC50 (Caspase-6) was 1.16 µM (active). For the same compound, the IC50 [3] was 8.96 µM (active), the IC50 [4] was 9.17 µM (active) and the EC50 (Protein RecA) was 2.15 µM (active).

With CCOc1ccc(-c2nnc(SCC(=O)Nc3ccc4c(c3)c3ccccc3n4CC)n2N)cc1 the EC50 [5] was 11.6 µM (active), the EC50 [6] was > 120 µM (not active) and the EC50 [7] was 42.3 µM (active). For the same compound, the AC50 [8] was 10.3 µM (active).

In the case of O=C(COc1ccccc1)N1CCc2ccccc2C1, the IC50 [9] is reported as 93.6 µM (inactive) and the IC50 [10] is reported as 23.7 µM (active).

For CCOC(=O)N1CCN(C(=O)/C=C/c2ccc(OC)cc2)CC1, the IC50 (Beta-galactosidase) was > 80 µM (inactive).

In the case of CC(=O)N1CCOc2ccc(S(=O)(=O)N3CCC(C(=O)NCc4ccc(C)cc4)CC3)cc21, the IC50 (Beta-galactosidase) is reported as > 80 µM (inactive), the EC50 [11] is reported as > 53 µM (inactive) and the IC50 [12] is reported as > 47.1 µM (inactive).

In the case of O=[N+]([O-])c1ccc(N(CCO)CCO)c2c1no[n+]2[O-], the EC50 [13] is reported as > 91.2 µM (inactive), the AC50 [14] is reported as 4.45 µM (active) and the EC50 [15] is reported as > 91.2 µM (inactive).

With CC(C)CSc1nnc(-c2ccco2)n1C the EC50 [13] was > 91.2 µM (inactive) and the EC50 [15] was > 91.2 µM (inactive).
